# Measured values published in patent US8835472B2, “Compounds, pharmaceutical compositions and uses thereof” (Boehringer Ingelheim International GmbH, priority 2010, dated 2014).
# Target: human ACC2 (Homo sapiens (Human), UniProt O00763)
# Test: ACC2 assay, spectrophotometric 384 well assay (NADH-linked, coupled lactate dehydrogenase/pyruvate kinase reaction)
# Format: biochemical
# Settings: hACC2 construct lacking the 128 N-terminal amino acids; 25° C., 340 nm over 15 minutes
# Description: Spectrophotometric 384 Well Assay
# Malonyl CoA formation by acetyl CoA carboxylases is stoichometrically linked to the consumption of ATP. ACC2 activity is measured in a NADH-linked kinetic method measuring ADP generated during the ACC reaction using a coupled lactate dehydrogenase/pyruvate kinase reaction.
# For biological testing, a human ACC2 construct which lacks the 128 amino acids at the N-terminus for increased solubility (nt 385-6966 in Genbank entry AJ575592) is cloned. The protein is then expressed in insect cells using a baculoviral expression system. Protein purification is performed by anion exchange.
# All compounds are dissolved in dimethyl sulfoxide (DMSO) to a concentration of 10 mM.
# Assay reactions are then carried out in 384-well plates, with hACC2 in an appropriate dilution and at final assay concentrations (f.c.) of 100 mM Tris (pH 7.5), 10 mM trisodium citrate, 25 mM KHCO3, 10 mM MgCl2, 0.5 mg/mL BSA, 3.75 mM reduced L-glutathione, 15 U/mL lactate dehydrogenase, 0.5 mM phosphoenolpyruvate, 15 U/mL pyruvate kinase, compounds at different concentrations at final DMSO concentrations of 1%.
# The enzymatic reaction is then started by addition of a mixture of NADH, acetyl Coenzyme A (both 200 μM f.c.) and ATP (500 uM f.c.). The decrease of the optical density (slope S) is then determined at 25° C. at a wavelength of 340 nm over 15 minutes in a spectrophotometric reader.
# Each assay microtiter plate contains wells with vehicle instead of compound as controls for the non-inhibited enzyme (100% CTL; ‘HIGH’) and wells without acetyl-CoA as controls for non-specific NADH degradation (0% CTL; ‘LOW’).
# The slope S is used for calculation of % CTL=(S(compound)−S(‘LOW’))/(S(‘HIGH’)−S(‘LOW’))*100. Compounds will give values between 100% CTL (no inhibition) and 0% CTL (complete inhibition).
# For IC50 value determination, the sample slope in the presence of the test compound after subtraction of the low controls (S(compound)−S(‘LOW’)) are used. An IC50 value is derived from the compound slopes at different dosages after subtraction of the low controls (S(compound)−S(‘LOW’)) by non-linear regression curve fitting (equation y=(A+((B−A)/(1+((C/x)^D))))).
# Sequence of human ACC2 (O00763 129-2458): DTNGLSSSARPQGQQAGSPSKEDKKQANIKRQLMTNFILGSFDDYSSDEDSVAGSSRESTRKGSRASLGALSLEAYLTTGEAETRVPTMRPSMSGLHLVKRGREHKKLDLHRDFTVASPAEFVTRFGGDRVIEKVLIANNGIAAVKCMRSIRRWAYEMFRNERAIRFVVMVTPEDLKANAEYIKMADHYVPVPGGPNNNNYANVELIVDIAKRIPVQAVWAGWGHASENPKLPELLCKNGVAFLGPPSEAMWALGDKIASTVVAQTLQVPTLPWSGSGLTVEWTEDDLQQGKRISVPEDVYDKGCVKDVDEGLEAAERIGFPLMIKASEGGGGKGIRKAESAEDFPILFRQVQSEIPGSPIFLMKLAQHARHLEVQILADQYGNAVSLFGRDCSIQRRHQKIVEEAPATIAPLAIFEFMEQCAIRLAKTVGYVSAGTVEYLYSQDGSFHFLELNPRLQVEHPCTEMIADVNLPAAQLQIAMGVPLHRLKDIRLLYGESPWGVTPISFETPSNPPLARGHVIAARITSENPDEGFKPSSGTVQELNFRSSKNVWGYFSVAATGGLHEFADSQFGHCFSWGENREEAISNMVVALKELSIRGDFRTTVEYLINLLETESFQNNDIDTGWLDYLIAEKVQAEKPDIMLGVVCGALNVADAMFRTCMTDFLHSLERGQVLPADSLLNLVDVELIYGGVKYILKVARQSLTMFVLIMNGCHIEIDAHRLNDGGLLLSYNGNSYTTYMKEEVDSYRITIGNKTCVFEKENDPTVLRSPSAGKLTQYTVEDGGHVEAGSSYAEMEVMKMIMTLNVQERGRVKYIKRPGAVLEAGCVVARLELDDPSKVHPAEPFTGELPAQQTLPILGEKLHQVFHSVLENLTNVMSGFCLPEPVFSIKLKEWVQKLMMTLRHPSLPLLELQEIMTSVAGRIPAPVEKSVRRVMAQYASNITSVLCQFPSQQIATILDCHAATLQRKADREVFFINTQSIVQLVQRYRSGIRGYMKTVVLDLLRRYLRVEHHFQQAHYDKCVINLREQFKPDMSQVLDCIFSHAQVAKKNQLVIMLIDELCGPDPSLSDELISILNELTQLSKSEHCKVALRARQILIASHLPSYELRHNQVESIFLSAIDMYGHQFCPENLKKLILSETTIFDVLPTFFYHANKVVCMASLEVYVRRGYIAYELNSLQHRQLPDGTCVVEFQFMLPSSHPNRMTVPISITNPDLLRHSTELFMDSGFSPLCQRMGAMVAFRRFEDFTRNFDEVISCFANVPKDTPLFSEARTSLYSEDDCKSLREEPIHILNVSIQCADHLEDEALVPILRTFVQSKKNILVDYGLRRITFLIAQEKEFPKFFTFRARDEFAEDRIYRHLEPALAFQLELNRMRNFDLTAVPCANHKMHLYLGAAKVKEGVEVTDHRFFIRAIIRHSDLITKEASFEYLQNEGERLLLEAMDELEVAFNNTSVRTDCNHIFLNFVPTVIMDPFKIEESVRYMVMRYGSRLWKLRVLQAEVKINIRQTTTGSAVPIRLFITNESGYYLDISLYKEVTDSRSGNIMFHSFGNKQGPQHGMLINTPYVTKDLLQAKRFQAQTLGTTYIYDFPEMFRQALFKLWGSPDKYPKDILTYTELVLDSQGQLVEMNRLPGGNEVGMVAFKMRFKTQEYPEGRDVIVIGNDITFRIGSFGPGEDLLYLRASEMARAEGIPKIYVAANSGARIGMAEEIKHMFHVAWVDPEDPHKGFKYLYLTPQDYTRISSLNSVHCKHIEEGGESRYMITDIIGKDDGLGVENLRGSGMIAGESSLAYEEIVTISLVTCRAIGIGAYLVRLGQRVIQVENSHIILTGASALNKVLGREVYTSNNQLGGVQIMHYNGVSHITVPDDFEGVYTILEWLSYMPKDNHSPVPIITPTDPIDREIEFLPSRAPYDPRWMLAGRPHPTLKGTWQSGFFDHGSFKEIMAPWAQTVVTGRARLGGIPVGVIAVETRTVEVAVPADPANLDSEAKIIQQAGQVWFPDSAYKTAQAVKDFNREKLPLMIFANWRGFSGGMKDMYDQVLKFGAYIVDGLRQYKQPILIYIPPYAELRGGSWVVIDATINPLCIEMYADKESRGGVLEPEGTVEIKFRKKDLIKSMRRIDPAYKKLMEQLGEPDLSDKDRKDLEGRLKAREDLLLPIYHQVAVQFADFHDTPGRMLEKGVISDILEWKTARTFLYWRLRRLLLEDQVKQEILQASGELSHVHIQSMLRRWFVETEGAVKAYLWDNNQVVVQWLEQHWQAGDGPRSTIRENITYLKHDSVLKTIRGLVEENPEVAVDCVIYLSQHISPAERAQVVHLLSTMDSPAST
row,Compound,IC50 [nM]
1,CC(=O)NC(C)Cc1ccc(C#Cc2cnc(OCCF)nc2)cc1 (stereo not shown) [Example 12.31],1100
2,CC(=O)NC(C)Cc1ccc(C#Cc2ccc(OCCC(F)(F)F)cc2)cc1 (stereo not shown) [Example 9.32],100
3,CC(=O)NC(C)Cc1ccc(C#Cc2cnc(OCC(C)(F)F)nc2)cc1 (stereo not shown) [Example 12.43],2600
4,CCCOc1ccc(C#Cc2ccc(CC(C)NC(=O)C3CC3)cc2)cn1 (stereo not shown) [Example 2.70],800
5,CC(CNC(=O)c1cn[nH]c1)c1ccc(C#Cc2cnc(OC3CCC3)nc2)cc1 (stereo not shown) [Example 4.77],460
6,CC(=O)NC(C)Cc1ccc(C#Cc2ccc(OC(F)(F)F)cc2)cc1 (stereo not shown) [Example 14.50],1500
7,COc1ccc(CNc2ncc(C#Cc3ccc(CC(C)NC(C)=O)cc3)cn2)cc1 (stereo not shown) [Example 13.86],120
8,CC(=O)NC(C)Cc1ccc(C#Cc2cnc(OC3Cc4ccccc4C3)nc2)cc1 (stereo not shown) [Example 12.52],430
9,CCN(CC)c1ncc(C#Cc2ccc(CC(C)NC(C)=O)cc2)cn1 (stereo not shown) [Example 13.23],1200
10,CC(=O)NC(C)Cc1ccc(C#Cc2ccc(C(C)(C)C)cc2C#N)cc1 (stereo not shown) [Example 2.11],270
11,CC(=O)NC(C)Cc1ccc(C#Cc2c(C)noc2C)cc1 (stereo not shown) [Example 2.106],8200
12,CC(=O)NC(C)Cc1ccc(C#Cc2cnc(Oc3cccc(F)c3)nc2)cc1 (stereo not shown) [Example 12.47],130
13,CCOc1ncc(C#Cc2ccc([C@H](C)NC(=O)C3CC3)cc2)cn1 [Example 12.66],2100
14,CC(=O)NC(C)Cc1ccc(C#Cc2ccc(C(=O)N(C)Cc3ccccc3)cc2)cc1 (stereo not shown) [Example 8.9],3700
15,COc1cc(C#Cc2ccc(CC(C)NC(C)=O)cc2)ccc1Cl (stereo not shown) [Example 3.3],1300
16,CC(Cc1ccc(C#Cc2cnc(N3CC4CCCC4C3)nc2)cc1)NC(=O)C1CC1 (stereo not shown) [Example 13.43],580
17,CC(=O)N[C@@H](C)c1ccc(C#Cc2cnc(OCc3ccoc3)nc2)cc1 [Example 12.61],790
18,CC(CNC(=O)N(C)C)c1ccc(C#Cc2cnc(OC3CCC3)nc2)cc1 (stereo not shown) [Example 33.2],130
19,CC(Cc1ccc(C#Cc2ccc(C(C)(C)C)cc2)cc1)NC(=O)C1CC1 (stereo not shown) [Example 14.45],1000
20,"CCOc1ccc(C#Cc2ccc(C(C)NC(=O)N(C)C)cc2)cc1 (stereo not shown) [Example 7.1, 3-(1-(4-((4-Ethoxyphenyl)ethynyl)phenyl)ethyl)-1,1-dimethylurea]",620
21,CC(Cc1ccc(C#Cc2cnc(NCc3ccccc3)nc2)cc1)NC(=O)C1CC1 (stereo not shown) [Example 13.54],200

row,Compound,IC50 [nM]
1,COC(=O)NC(C)Cc1ccc(C#Cc2cnc(NCCF)nc2)cc1 (stereo not shown) [Example 13.42],4500
2,CCOc1ccc(C#Cc2ccc(CN3CCCC3=O)cc2)cc1 [Example 16.2],3200
3,CC(=O)NC(C)Cc1ccc(C#Cc2cccc(C(=O)N3CCN(C)CC3)c2)cc1 (stereo not shown) [Example 8.54],25100
4,CCNc1ncc(C#Cc2ccc(CC(C)NC(=O)C3CC3)cc2)cn1 (stereo not shown) [Example 13.52],5200
5,CCOc1ccc(C#Cc2ccc(CC(C)NC(=O)c3ccccc3)cc2)cc1 (stereo not shown) [Example 4.19],2800
6,"CC(=O)NC(C)Cc1ccc(C#Cc2ccc(-n3cccc3)cc2)cc1 (stereo not shown) [Example 2.1, N-(1-(4-((4-(1H-Pyrrol-1-yl)phenyl)ethynyl)phenyl)propan-2-yl)acetamide]",460
7,CC(=O)NCC(C)(C)c1ccc(C#Cc2ccc(OCC3CC3)cc2)cc1 [Example 2.37],100
8,CC(=O)NC(C)Cc1ccc(C#Cc2cnc(N3CCC4(CCCC4)C3)nc2)cc1 (stereo not shown) [Example 13.73],280
9,CCCCOc1ccc(C#Cc2ccc(CC(C)NC(=O)C3CC3)cc2)cc1 (stereo not shown) [Example 14.31],90
10,COc1ccccc1Oc1ncc(C#Cc2ccc(CC(C)NC(C)=O)cc2)cn1 (stereo not shown) [Example 12.46],1000
11,CC(=O)NC(C)Cc1ccc(C#Cc2ccc(OC3CCCOC3)cc2)cc1 (stereo not shown) [Example 9.29],190
12,CCC(CC)Oc1cccc(C#Cc2ccc(CC(C)NC(C)=O)cc2)c1 (stereo not shown) [Example 9.8],810
13,CC(=O)NC(C)Cc1ccc(C#Cc2ccnc(N3CCC4(CCCC4)C3)n2)cc1 (stereo not shown) [Example 11.28],380
14,CCNc1ncc(C#Cc2ccc([C@H](C)NC(C)=O)cc2)cn1 [Example 13.95],2800
15,CC(=O)NCC(C)(C)c1ccc(C#Cc2cnc(OC3CCC3)nc2)cc1 [Example 2.34],180
16,CC(=O)NC(C)Cc1ccc(C#Cc2cnc(OCc3ccccc3F)nc2)cc1 (stereo not shown) [Example 12.53],9000
17,CC(=O)NC(C)Cc1ccc(C#Cc2cnc(NCc3csc(C)n3)nc2)cc1 (stereo not shown) [Example 13.69],5000
18,CC(=O)NC(C)Cc1ccc(C#Cc2ccc(C)cc2Cl)cc1 (stereo not shown) [Example 3.2],270
19,"CCOc1ccc(C#Cc2ccc(CCNC(=O)CC)cc2)cc1 [Example 16.1, N-(4-((4-Ethoxyphenyl)ethynyl)phenethyl)propionamide]",1100
20,CC(=O)NC(C)Cc1ccc(C#Cc2ccc(OC(C)C)nc2)cc1 (stereo not shown) [Example 2.21],240
21,CC(=O)NC(C)Cc1ccc(C#Cc2cccc(C(=O)N(C)C3CCCC3)c2)cc1 (stereo not shown) [Example 8.33],2000

row,Compound,IC50 [nM]
1,CC(=O)NC(C)Cc1ccc(C#Cc2ccc(C(C)C)cc2)cc1 (stereo not shown) [Example 1.22],290
2,CCOc1ccc(C#Cc2ccc(CC(C)NC(=O)C3CCC(=O)NC3)cc2)cc1 (stereo not shown) [Example 4.64],5100
3,CCOc1ccc(C#Cc2ccc(C(C)NC(=O)C3CC3C)cc2)cc1 (stereo not shown) [Example 4.75],15400
4,CC(=O)NC(C)Cc1ccc(C#Cc2ccc(OCC3CCOCC3)cc2)cc1 (stereo not shown) [Example 9.31],550
5,CC(=O)N[C@@H](C)c1ccc(C#Cc2cnc(N3CC4CCCC4C3)nc2)cc1 (stereo partly shown) [Example 13.93],270
6,CC(=O)NC(C)Cc1ccc(C#Cc2ccnc(N3CCC(CO)C3)n2)cc1 (stereo not shown) [Example 11.10],16700
7,CC(=O)NC(C)Cc1ccc(C#Cc2cnc(NCCC(C)(C)C)nc2)cc1 (stereo not shown) [Example 13.83],190
8,CCOc1ccc(C#Cc2ccc(CC(C)NC(=O)C(=O)CC)cc2)cc1 (stereo not shown) [Example 4.24],1000
9,CCOc1ccc(C#Cc2ccc(CC(C)NC(=O)C3(O)CC3)cc2)cc1 (stereo not shown) [Example 4.12],560
10,"CCCOc1ccc(C#Cc2ccc(C(C)CNC(=O)N(C)C)cc2)cc1 (stereo not shown) [Example 33.1, 1,1-Dimethyl-3-{2-[4-(4-propoxy-phenylethynyl)-phenyl]-propyl}-urea]",160
11,CC(=O)NC(C)Cc1ccc(C#Cc2cc(C)c3c(c2)oc(=O)n3C)cc1 (stereo not shown) [Example 2.81],4000
12,CCOC(=O)c1cccc(C#Cc2ccc(CC(C)NC(C)=O)cc2)c1 (stereo not shown) [Example 2.2],390
13,CCOc1ccc(C#Cc2ccc(CC(C)NC(=O)C(C)(C)F)cc2)cc1 (stereo not shown) [Example 4.49],8700
14,CC(=O)NC(C)Cc1ccc(C#Cc2cnc(OC(C)C)nc2)cc1 (stereo not shown) [Example 12.21],380
15,COC(=O)NC(C)Cc1ccc(C#Cc2cnc(N3CCCCC3)nc2)cc1 (stereo not shown) [Example 13.32],410
16,CCOc1ccc(C#Cc2ccc(CC(C)NC(=O)C3CCC3)cc2)cc1 (stereo not shown) [Example 4.20],180
17,CC(=O)NC(C)Cc1ccc(C#Cc2cnc(NC(C)C(C)C)nc2)cc1 (stereo not shown) [Example 13.11],230
18,COCCn1cncc1COc1ccc(C#Cc2ccc(CC(C)NC(C)=O)cc2)cc1 (stereo not shown) [Example 9.34],6400
19,COCCOc1ccc(C#Cc2ccc(CC(C)NC(C)=O)cc2)cc1 (stereo not shown) [Example 9.4],610
